The results in this text go back to the NIST ThermoML archive (doi:10.1016/j.jct.2015.09.029).

Usually viscosity stands for the resistance of a fluid to flow. As usually defined, the speed of sound is how fast a sound wave travels through the sample.

Numbers after ± are expanded uncertainties.

Data set [1] is described as follows: mn = molality of the nth substance listed, in mol/kg. The conditions noted are these: 100 kPa, Liquid; for viscosity: Capillary tube (Ostwald / Ubbelohde) method; for speed of sound: Frequency=2 MHz, Linear variable-path acoustic interferometer.
The conditions of data set [2]: 100 kPa, Liquid, Capillary tube (Ostwald / Ubbelohde) method.

On to `O` [water] + CCCCn1cc[n+](C)c1.[Cl-], for which the viscosity in data set [1] (298.15 K, m2 = 0) came to 0.8905 ± 0.019 mPa·s.
On to `O` [water], for which the viscosity in data set [2] (298.15 K) is given as 0.8905 ± 0.019 mPa·s; in data set [2] (303.15 K), 0.7977 ± 0.017 mPa·s; in data set [2] (308.15 K), 0.7195 ± 0.015 mPa·s; in data set [2] (313.15 K) it was 0.6532 ± 0.014 mPa·s.
Turning to `O` [water] + CCCC[P+](C)(CCCC)CCCC.COS(=O)(=O)[O-], the viscosity in data set [1] (298.15 K, m2 = 0) is listed as 0.8905 ± 0.019 mPa·s; in data set [1] (303.15 K, m2 = 0) it was 0.7977 ± 0.017 mPa·s; in data set [1] (308.15 K, m2 = 0) it was 0.7195 ± 0.015 mPa·s; in data set [1] (313.15 K, m2 = 0), 0.6532 ± 0.014 mPa·s. Further, the speed of sound is 1497.6 ± 4.3 m/s in data set [1] (298.15 K, m2 = 0) and 1528.5 ± 4.3 m/s in data set [1] (313.15 K, m2 = 0).
Take `O` [water] + CCCC[P+](CCCC)(CCCC)CCCC.[Cl-]: the viscosity is recorded as 0.8905 ± 0.019 mPa·s in data set [1] (298.15 K, m2 = 0); 0.7977 ± 0.017 mPa·s in data set [1] (303.15 K, m2 = 0); 0.7195 ± 0.015 mPa·s in data set [1] (308.15 K, m2 = 0); 0.6532 ± 0.014 mPa·s in data set [1] (313.15 K, m2 = 0). In addition, the speed of sound was determined as 1497.6 ± 4.3 m/s in data set [1] (298.15 K, m2 = 0) and 1528.5 ± 4.3 m/s in data set [1] (313.15 K, m2 = 0).
For `CCCCn1cc[n+](C)c1.[Cl-]` [1-butyl-3-methylimidazolium chloride] + O, the viscosity was 0.8976 ± 0.019 mPa·s in data set [1] (298.15 K, m1 = 0.0155); 0.9023 ± 0.019 mPa·s in data set [1] (298.15 K, m1 = 0.0257); 0.9166 ± 0.019 mPa·s in data set [1] (298.15 K, m1 = 0.0567); 0.9205 ± 0.019 mPa·s in data set [1] (298.15 K, m1 = 0.0653); 0.9265 ± 0.019 mPa·s in data set [1] (298.15 K, m1 = 0.0782); 0.9317 ± 0.019 mPa·s in data set [1] (298.15 K, m1 = 0.0895). In addition, the viscosity was 0.933 ± 0.019 mPa·s in data set [1] (298.15 K, m1 = 0.0923); 0.9389 ± 0.02 mPa·s in data set [1] (298.15 K, m1 = 0.1052); 0.9422 ± 0.02 mPa·s in data set [1] (298.15 K, m1 = 0.1123).
For the molecule `O` [water] + CC(C)C[P+](C)(CC(C)C)CC(C)C.Cc1ccc(S(=O)(=O)[O-])cc1, the viscosity in data set [1] (298.15 K, m2 = 0) is on record as 0.8905 ± 0.019 mPa·s; in data set [1] (303.15 K, m2 = 0) it was 0.7977 ± 0.017 mPa·s; in data set [1] (308.15 K, m2 = 0), 0.7195 ± 0.015 mPa·s; in data set [1] (313.15 K, m2 = 0) it was 0.6532 ± 0.014 mPa·s. Also, the speed of sound in data set [1] (298.15 K, m2 = 0) was 1497.6 ± 4.3 m/s; in data set [1] (313.15 K, m2 = 0), 1528.5 ± 4.3 m/s.
